The text below walks through data of ChEMBL document CHEMBL5244260, “Aldose reductase and protein tyrosine phosphatase 1B inhibitors as a promising therapeutic approach for diabetes mellitus” (Eur J Med Chem, 2020).

Experiment [1] has as its target Aldo-keto reductase family 1 member B1 (Homo sapiens, UniProt P15121). In words: Inhibition of ALR2 (unknown origin) using D,L-glyceraldehyde as substrate incubated for 10 mins in presence of NADPH by UV-spectrophotometric assay.
For experiment [2], the system named is Mus musculus. In words: Hypoglycemic activity in alloxan monohydrate induced diabetic model of BALB/c mouse assessed as decrease in glucose level at 10 mg/kg,po measured upto 8 hrs by glucometer. Details: scale not given: the % may be the effect or the level left. It counts as functional.
Experiment [3] concerns the target T1, Tyrosine-protein phosphatase non-receptor type 1 (Homo sapiens, UniProt P18031).
T1 sequence (P18031 whole entry): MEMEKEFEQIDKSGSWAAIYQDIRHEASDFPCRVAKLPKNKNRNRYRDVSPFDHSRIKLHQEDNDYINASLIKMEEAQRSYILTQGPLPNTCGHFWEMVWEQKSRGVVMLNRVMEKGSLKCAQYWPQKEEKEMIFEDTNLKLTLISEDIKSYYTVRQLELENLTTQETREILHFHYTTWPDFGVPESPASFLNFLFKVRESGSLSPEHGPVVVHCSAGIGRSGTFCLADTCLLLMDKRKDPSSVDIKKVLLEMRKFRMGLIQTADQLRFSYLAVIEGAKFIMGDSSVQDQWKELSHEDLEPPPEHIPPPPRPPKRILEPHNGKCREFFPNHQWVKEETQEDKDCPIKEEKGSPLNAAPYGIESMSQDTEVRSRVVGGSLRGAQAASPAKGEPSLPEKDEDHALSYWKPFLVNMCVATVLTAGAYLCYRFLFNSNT
In words: Inhibition of PTP1B (unknown origin) using DiFMUP as substrate incubated for 30 min by fluorescence based microplate reader assay.

Experiment [4] concerns the target T1, Tyrosine-protein phosphatase non-receptor type 1. In words: Inhibition of PTP1B (unknown origin) using pNPP as substrate.
A further experiment is filed under the species Homo sapiens. In words: Selectivity ratio of IC50 for PTP1B (unknown origin) to IC50 for TCPTP (unknown origin).
Experiment [5] deals with T2, Tyrosine-protein phosphatase non-receptor type 7 (Homo sapiens, UniProt P35236).
T2 sequence (P35236 whole entry): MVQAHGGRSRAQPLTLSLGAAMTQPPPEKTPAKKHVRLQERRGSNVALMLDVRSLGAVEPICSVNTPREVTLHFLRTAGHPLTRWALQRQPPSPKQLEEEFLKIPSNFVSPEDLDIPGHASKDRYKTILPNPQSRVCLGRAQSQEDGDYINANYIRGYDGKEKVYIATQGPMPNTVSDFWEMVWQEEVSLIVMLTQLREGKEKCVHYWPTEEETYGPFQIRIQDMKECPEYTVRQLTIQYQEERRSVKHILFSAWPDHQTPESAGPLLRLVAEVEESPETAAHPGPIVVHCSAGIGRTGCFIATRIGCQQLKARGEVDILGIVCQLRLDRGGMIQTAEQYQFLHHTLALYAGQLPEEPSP
In words: Inhibition of HEPTP (unknown origin).

In experiment [6] the target is Receptor-type tyrosine-protein phosphatase alpha (Homo sapiens, UniProt P18433). Description: Inhibition of PTPalpha (unknown origin).
Sequence of Receptor-type tyrosine-protein phosphatase alpha (P18433 whole entry): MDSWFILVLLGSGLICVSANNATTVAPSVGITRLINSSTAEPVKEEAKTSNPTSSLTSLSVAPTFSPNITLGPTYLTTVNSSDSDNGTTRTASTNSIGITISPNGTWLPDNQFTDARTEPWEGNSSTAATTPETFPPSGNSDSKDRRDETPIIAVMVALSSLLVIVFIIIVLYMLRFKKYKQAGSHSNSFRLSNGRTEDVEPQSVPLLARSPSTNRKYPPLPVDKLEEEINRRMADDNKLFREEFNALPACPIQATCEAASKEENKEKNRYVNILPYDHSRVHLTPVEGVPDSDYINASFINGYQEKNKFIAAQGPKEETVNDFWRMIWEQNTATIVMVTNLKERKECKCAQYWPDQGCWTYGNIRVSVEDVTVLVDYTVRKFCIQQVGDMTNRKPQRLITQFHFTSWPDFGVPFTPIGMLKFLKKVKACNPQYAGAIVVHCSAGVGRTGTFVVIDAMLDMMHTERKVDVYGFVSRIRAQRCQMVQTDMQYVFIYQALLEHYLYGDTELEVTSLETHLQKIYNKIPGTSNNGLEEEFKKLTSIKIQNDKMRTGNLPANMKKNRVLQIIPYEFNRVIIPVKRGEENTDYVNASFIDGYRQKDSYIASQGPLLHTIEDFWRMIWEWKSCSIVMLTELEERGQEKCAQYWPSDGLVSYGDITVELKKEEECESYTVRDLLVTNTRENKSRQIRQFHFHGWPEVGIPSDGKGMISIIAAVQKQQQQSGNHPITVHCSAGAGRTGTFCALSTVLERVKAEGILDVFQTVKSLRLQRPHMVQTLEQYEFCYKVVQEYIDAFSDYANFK
Experiment [7] concerns Mus musculus. Description: Anti-diabetic activity in ob/ob diabetic C57BL/6J mouse assessed as decrease in glucose level at 25 mg/kg,po dosed for 4 days. Type of experiment: functional. Also noted: scale not given: the % may be the effect or the level left. The following applies: time 4 day.
Experiment [8] deals with T1, Tyrosine-protein phosphatase non-receptor type 1. Description: Inhibition of PTP1B (unknown origin) assessed as inhibition constant using pNPP as substrate.
Experiment [9] has the same target. In words: Inhibition of human recombinant PTP1B (1 to 321 residues) expressed in Escherichia coli BL21 assessed as inhibition constant using pNPP as substrate.
Experiment [10] can be described thus: Inhibition of ALR2 in Wistar rat lens using D,L-glyceraldehyde as substrate preincubated for 1 min in presence of NADPH followed by substrate addition and measured after 4 mins by spectrophotometric assay. Type of experiment: tissue-based.
The target in experiment [11] is T3, Peroxisome proliferator-activated receptor gamma (Homo sapiens, UniProt P37231).
T3 sequence (P37231 whole entry): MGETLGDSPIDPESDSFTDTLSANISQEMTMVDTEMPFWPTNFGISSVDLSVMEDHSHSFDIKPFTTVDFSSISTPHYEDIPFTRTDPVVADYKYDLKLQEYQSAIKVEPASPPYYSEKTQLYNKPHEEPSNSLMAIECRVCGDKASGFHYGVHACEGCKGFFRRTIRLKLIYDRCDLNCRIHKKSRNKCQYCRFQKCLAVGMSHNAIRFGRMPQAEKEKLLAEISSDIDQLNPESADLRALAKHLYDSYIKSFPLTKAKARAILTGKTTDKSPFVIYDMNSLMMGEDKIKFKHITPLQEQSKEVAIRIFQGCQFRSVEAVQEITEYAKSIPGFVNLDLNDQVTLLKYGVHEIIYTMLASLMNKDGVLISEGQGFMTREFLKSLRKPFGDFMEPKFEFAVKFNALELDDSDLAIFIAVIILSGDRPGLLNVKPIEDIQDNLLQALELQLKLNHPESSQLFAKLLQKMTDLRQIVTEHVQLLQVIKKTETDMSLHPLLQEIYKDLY
Description: Agonist activity at Gal4-PPARgamma (unknown origin) transfected in HCT-116 cells incubated for 24 hrs by luciferase reporter assay. It counts as cell-based. On the technique in general: Reporter assays use an easily measured gene product as a stand-in for the process of interest.

Experiment [12] deals with T1, Tyrosine-protein phosphatase non-receptor type 1. In words: Inhibition of PTP1B (1 to 321 residues) (unknown origin) expressed in Escherichia coli BL21 assessed as inhibition constant using pNPP as substrate incubated for 60 min by Michaelis-Menten analysis.
For experiment [13] the target is unchanged. Description: Inhibition of human recombinant PTP1B using pNPP as substrate incubated for 40 min.
Experiment [14] is described as follows: Inhibition of ALR2 in rabbit lens using D,L-glyceraldehyde as substrate preincubated for 1 min in presence of NADPH followed by substrate addition and measured after 4 mins by spectrophotometric assay. It counts as tissue-based, Oryctolagus cuniculus.
The target of experiment [15] is T1, Tyrosine-protein phosphatase non-receptor type 1. In words: Inhibition of human recombinant PTP1B expressed in Escherichia coli BL21 (DE3) using pNPP as substrate by high-throughput screening assay.
The target in the next experiment is Alpha-glucosidase (Saccharomyces cerevisiae S288c, UniProt P53341+P38158+P07265). In words: Inhibition of yeast alpha-glucosidase using PNP-G as substrate preincubated for 10 mins followed by substrate addition by spectrophotometer microplate reader assay. Type of experiment: protein assay.
Experiment [16] deals with T1, Tyrosine-protein phosphatase non-receptor type 1. In words: Inhibition of human recombinant GST-tagged PTP1B (1 to 321 residues) expressed in Escherichia coli using pNPP as substrate preincubated for 10 mins followed by substrate addition and measured after 30 mins by microplate reader assay.
The target of experiment [17] is T4, Prostaglandin G/H synthase 2 (Homo sapiens, UniProt P35354).
T4 sequence (P35354 whole entry): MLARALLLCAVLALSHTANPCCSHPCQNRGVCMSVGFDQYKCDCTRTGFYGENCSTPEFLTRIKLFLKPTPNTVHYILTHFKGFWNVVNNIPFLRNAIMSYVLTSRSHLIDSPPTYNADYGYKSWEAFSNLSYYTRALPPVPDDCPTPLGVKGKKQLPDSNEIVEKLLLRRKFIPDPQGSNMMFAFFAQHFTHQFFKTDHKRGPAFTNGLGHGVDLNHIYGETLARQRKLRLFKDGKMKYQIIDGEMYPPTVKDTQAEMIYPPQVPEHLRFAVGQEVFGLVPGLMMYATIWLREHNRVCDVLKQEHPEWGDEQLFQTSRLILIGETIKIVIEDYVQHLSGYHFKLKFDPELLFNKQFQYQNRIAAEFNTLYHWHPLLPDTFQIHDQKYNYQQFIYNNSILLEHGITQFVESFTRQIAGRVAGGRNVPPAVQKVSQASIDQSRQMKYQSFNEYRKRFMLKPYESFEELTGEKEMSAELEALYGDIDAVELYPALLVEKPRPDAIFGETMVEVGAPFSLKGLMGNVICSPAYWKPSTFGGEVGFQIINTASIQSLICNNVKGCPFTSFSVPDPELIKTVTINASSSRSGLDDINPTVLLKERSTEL
Description: Inhibition of COX-2 (unknown origin) by spectrophotometer assay.

The target in experiment [18] is T1, Tyrosine-protein phosphatase non-receptor type 1. Description: Inhibition of human PTP1B using pNPP as substrate incubated for 30 min by UV-Visible spectrophotometer assay.
The target is the same in experiment [19]. In words: Inhibition of human recombinant GST-tagged PTP1B (1 to 321 residues) expressed in Escherichia coli using pNPP as substrate by spectrophotometer assay.

The structures appear in SMILES notation.

As for `O=C1NC(=O)C2(CCCCC2)N1S(=O)(=O)c1ccc(Cl)s1`, in experiment [1], the IC50 was 470 nM. In addition, the Activity in the experiment on Mus musculus [2] came to 79%.

On to `O=c1c2cc(O)c(O)cc2oc2cc(OCc3cccc(Cl)c3F)cc(O)c12`, for which the IC50 in experiment [3] was found to be 600 nM. As for `O=C(c1ccccc1)C(Cc1ccc2cc(Br)c(C(F)(F)P(=O)(O)O)cc2c1)(c1ccc2cc(C(F)(F)P(=O)(O)O)c(Br)cc2c1)n1nnc2ccccc21` (stereo unspecified), the IC50 in [4] stood at 5 nM. The Ratio IC50 in the experiment listed under Homo sapiens is 116. Turning to `O=C(O)[C@H](Cc1ccccc1)Oc1ccc(-c2ccc(-c3c(Cc4ccccc4)oc4ccccc34)cc2)cc1`, the IC50 in [5] was 7100 nM; in experiment [6], 33700 nM. Also, in the experiment on Mus musculus [7], the Activity turned out to be 27%. With `CCCCCNC(=O)[C@H](Cc1ccc(OC(C(=O)O)C(=O)O)cc1)NC(=O)[C@H](Cc1ccccc1)NC(=O)CCC(=O)O`, the Ki in experiment [8] was 1200 nM. For the molecule `CCCCCNC(=O)[C@H](Cc1ccc(OCC(=O)O)c(C(=O)O)c1)NC(=O)[C@H](Cc1ccccc1)NC(=O)CCC(=O)O`, the Ki in experiment [9] came to 250 nM. With `O=C(O)Cn1ccc2cc(OCc3ccccc3)ccc21`, in experiment [10], the IC50 turned out to be 460 nM. Further, the EC50 in [11] is above 47400 nM. In the case of `O=C(O)C(=O)Nc1sc2c(c1C(=O)O)COC(COC1=NS(=O)(=O)c3ccccc31)C2` (stereo unspecified), the Ki in experiment [12] was 600 nM. Consider `O=C(NCCCN1C[C@@H](O)[C@H](O)[C@H]1CO)c1ccc([N+](=O)[O-])cc1`, for which the IC50 in [13] is 31000 nM. Turning to `O=C(O)Cn1ccc2ccccc21`, in [14], the IC50 was found to be 7000 nM. As for `Cc1cc(/C=C2/S/C(=N/c3ccc(Cl)cc3)NC2=O)c(C)n1-c1cc(C(=O)O)cc(C(=O)O)c1`, the IC50 in experiment [15] was 1600 nM. `CC(=O)c1cc2cc(-c3cccc(Cl)c3)oc2cc1O`: the IC50 against Alpha-glucosidase stood at 110 nM; in experiment [16] it was 17800 nM; in experiment [17] it was 2810 nM.

The molecule `C[C@@]12CCC[C@](C)(C(=O)O)[C@H]1CCc1cc(OCC(=O)Oc3ccccc3C(=O)O)ccc12` registered a 50% inhibitory concentration (IC50) in [18] of 2900 nM. `O=C1/C(=C/c2ccc(-c3ccccc3)cc2)NC(=S)N1c1ccccc1`: the concentration for half-maximal inhibition (IC50) in [19] was found to be 2900 nM.

The term IC50 denotes the concentration needed to halve the response being measured. As usually defined, the Ki is the dissociation constant of the complex between target and ligand, obtained from inhibition or displacement. Usually EC50 stands for the concentration at which the effect is half-maximal.
